# According to US20140199292A1, “COMPOSITIONS AND METHODS FOR INHIBITING TUMOR DEVELOPMENT CAUSED BY CHEMOTHERAPY INDUCED SENESCENCE” (INSERM (Institut National de la Sante et de la Recherche …, priority 2011, published 2014):
# Assays:
# [1] = tested on: p65/RELA subunit of NF-kB; assay: Immunofluorescence of p65/RelA localization in melanoma cells; format: cell-based, human; details: for effect on NF-kB nuclear relocation by MITF-silencing: 3-AB 20 mM, sulfasalazine 500 μM
# Protocol: Melanoma cells seeded on glass coverslips in 12-well dishes, were transfected with siC or siMi. When indicated cells were exposed to TNFa (10 ng/ml). Ninety-six hours later, cells were fixed and permeabilized as previously described (Khaled et al. 2003) before being exposed to anti-MITF (Abcam), anti-p65/RelA (Santa Cruz biotechnology), 53BP1 (Bethyl Laboratories) and E-cadherin (BD Transduction Laboratories) antibodies. Cells were washed thrice with PBS, and then incubated for 1 hour with 1:1000 dilution anti-mouse or anti-rabbit Alexa Fluor 488 or Alexa Fluor 594 labeled secondary antibody (Invitrogen, San Diego, Calif., USA) and mounted using Gel/Mount (Biomeda corp., Foster City Calif.). Immunofluorescences were examined and photographed with a Zeiss Axiophot microscope equipped with epifluorescence illumination.
# [2] = tested on: IKK2, p53, PARP-1; assay: Western blot of 501mel cell extracts (IKK2, p53, poly-(ADP rybosyl)ation); format: cell-based, human
# Protocol: Western blots were carried out as previously described (Hilmi et al. 2008). Briefly, cell lysates (30 μg) were separated by SDS-PAGE, transferred on to a PVDF membrane and then exposed to the appropriate antibodies, anti-MITF (Abcam), anti-ERK2 (D-2 Santa Cruz biotechnology), anti-p53 (DO-1, Santa Cruz biotechnology), anti-PARP (Santa Cruz biotechnology), anti-IKK2 and anti-PARP (Cell Signaling Technology Inc.). Horseradish peroxidase-conjugated anti-rabbit or anti-mouse antibodies were from Dakopatts (Glostrup, Denmark). Proteins were visualized with the ECL system (Amersham). The western blots shown are representative of at least 3 independent experiments.
# [3] = tested on: CCL2; assay: CCL2 ELISA in supernatant of MCF7 cells; format: cell-based, human; design: CCL2 secretion of MCF7 cells: dose or concentration left out as unconfirmed; details: for effect on CCL2 secretion of H2O2-treated senescent MCF7 cells: sulfasalazine 500 μM, 3-AB 20 mM
# Text: CCL2 level in the supernatant of the different melanoma cell lines, in that of MCF7 cells or in that of 501mel cells transfected with siC or siMi for 96 hrs, in presence or absence of drugs, was quantified by ELISA (R&D systems). Results from two independent experiments were normalized to cell number and expressed as ng/ml/10^6 cells.
# [4] = tested on: NF-kB; assay: NF-kB luciferase reporter assay in 501mel cells; format: cell-based, human
# Protocol: 501mel melanoma cells were transiently transfected as previously described using the lipofectamine reagent (Invitrogen) (Bertolotto et al. 1998). Briefly, cells were transiently transfected with 0.3 μg of NF-kB reporter construct and 0.05 μg pCMVbGal to control the variability in transfection efficiency. The transfection medium was changed 6 hours later and when indicated, cells were transfected as described above with 50 nM of siC or siMi and/or siIKK2 or were exposed to drugs. Cells were assayed for luciferase and b-galactosidase activities 48 hours later. Transfections were repeated at least three times.
# [5] = tested on: 501mel human melanoma cells; assay: Senescence of 501mel melanoma cells (morphology, SA-b-Gal staining at pH6); format: cell-based; details: flattened and enlarged morphology, SA-b-Gal reactivity at pH6
# Protocol: (§1) 501mel human melanoma cells and MCF7 human breast cancer cells were grown in DMEM supplemented with 7% FBS at 37° C. in a humidified atmosphere containing 5% CO2. Lipofectamine™ RNAiMAX and opti-MEM medium were purchased from Invitrogen (San Diego, Calif., USA). TNFa and recombinant human CCL2 were from PeproTech Inc (Rocky Hill, N.J.), sulfasalazine and 3-AB from Sigma Chem. Co (St Louis, Mo.), mouse anti-CCL2 from R&D Systems and KU55933 from Calbiochem. The senescence b-galactosidase staining kit from Cell Signaling Technology (Beverly, Mass., USA) was used to histochemically detect b-galactosidase activity at pH6 as previously reported (Giuliano et al. 2010a). The percentage of means and standard deviations were derived from counting 100 cells in duplicate plates after 96 hrs.
# [6] = tested on: 501mel cells; assay: Invasion assay, matrigel-coated modified Boyden chamber, naive 501mel cells; format: cell-based, human; details: recombinant CCL2 100 ng/ml as chemoattractant
# Protocol: (§2) Cell invasion was assessed using a modified Boyden chamber assay with […] pore filter inserts for 24-well plates (BD Bioscience). 501mel cells were seeded on the upper chamber of matrigel-coated trans-well and chemoattractants (conditioned media or recombinant molecules) placed into the lower chamber. Twenty-four hours later, cells adherent to the underside of the filters were fixed with 4% PFA, stained with 0.4% crystal violet and five random fields at ×20 magnification were counted. Results represent the average of triplicate samples from three independent experiments.
# [7] = tested on: MITF; details: Mhaidat et al. 2007; Liu et al. 2009; cited from earlier work
# [8] = tested on: MCF7 human breast cancer cells; assay: Senescence, DNA damage and NF-kB activation of MCF7 cells; format: cell-based
# Protocol: as §1
# We next wondered if a similar PARP-1 and NF-kB-assiocated secretome (PNAS) could be observed in non-melanoma cells that have entered a program of senescence. […] Although CCL2 was not expected to be the major component of MCF7's secretome, CCL2 measurement was used as a readout of its formation. […] Together, our result reveal that PNAS during cellular senescence is a common mechanism that relies on activation of the DNA damages/NF-kB signaling cascade in both melanoma and non-melanoma cell lines.
# [9] = tested on: MCF7 cells; assay: Invasion assay, Boyden chamber, naive MCF7 cells; format: cell-based, human
# Protocol: (a) Conditioned media of control or senescent MCF7 (H2O2 treated) were added to the lower compartment of Boyden chambers to assess their chemotactic activity. Cells that had migrated to the underside of the upper compartment were stained 24 hrs later with crystal violet and the number of nuclei was counted using NIH-imageJ analysis software. Values represent mean+SD of three independent experiments. (b) ELISA test of CCL2 level in the conditioned media of control MCF7 or MCF7 incubated with H2O2 ([…]) and when indicated with sulfasalazine (500 μM) or 3-AB (20 mM). Data are represented as mean+SD.
# as §2
# [10] = 3-AB 20 mM, sulfasalazine 500 μM
compound,measurement,setting,value
"NC(=O)c1cccc(N)c1 [3-AB, 3-aminobenzamide]",effect on NF-kB nuclear relocation by MITF-silencing,[1],no longer able to relocate NF-kB to the nucleus
same,effect on p53 up-regulation mediated by MITF silencing,[2]; western blot,almost completely abrogated
same,effect on CCL2 secretion of H2O2-treated senescent MCF7 cells,[3],impaired
same,effect on NF-kB transcriptional activity stimulated by oxidative stress and chemotherapeutic drugs,"[4]; 3-AB 20 mM, FMT 40 mM, TMZ 900 nM, H2O2 100 mM",prevented
same,effect on stimulation of NF-kB transcriptional activity by MITF-silencing,[4]; [10],no longer able
CCOP(=O)(OCC)C(C)NC(=O)N(CCCl)N=O (centres unmarked) [fotemustine],senescence of melanoma cells,[5],extended these findings
"CCL2: recombinant human CCL2 from PeproTech, chemokine",invasive capability of naive 501mel cells,[6],stimulated the invasive capability
O=C(O)c1cc(/N=N/c2ccc(S(=O)(=O)Nc3ccccn3)cc2)ccc1O [sulfasalazine],effect on NF-kB nuclear relocation by MITF-silencing,[1],no longer able to relocate NF-kB to the nucleus
same,effect on IKK2 up-regulation mediated by MITF silencing,[2]; western blot,abrogated
same,effect on p53 up-regulation mediated by MITF silencing,[2]; western blot,modestly affected
same,effect on CCL2 secretion of H2O2-treated senescent MCF7 cells,[3],impaired
same,effect on stimulation of NF-kB transcriptional activity by MITF-silencing,[4]; [10],no longer able
same,effect on activation of the NF-kB reporter gene by siMITF or TNFa,"[4]; sulfasalazine 500 μM, siIKK2 co-knockdown",prevented activation of the NF-kB reporter gene
OO [H2O2],MITF expression,[7],decreased the expression of MITF
same,senescence of melanoma cells,[5],underwent premature senescence
same,DNA damage in MCF7 cells (gH2AX labeling),[8],DNA damage induction
same,NF-kB activity in MCF7 cells (nuclear localization of p65/RELA),[8],stimulation of NF-kB activity
same,senescence of MCF7 cells,"[8]; morphological changes, SA-b-galactosidase, p53 and p21",underwent senescence
same,poly-(ADP rybosyl)ation in melanoma cells,[2],increased poly-(ADP rybosyl)ation
same,invasion of naive MCF7 cells toward supernatant of treated (senescent) MCF7,[9],enhanced the invasion of naïve MCF7 cells
same,CCL2 secretion of MCF7 cells,[3]; H2O2,resulted in CCL2 secretion
TNFa,cellular localization of p65/RELA,[1]; TNFa 10 ng/ml,p65 relocalized to the nucleus
same,NF-kB transcriptional activity (luciferase reporter),"[4]; 501mel cells, TNFα 10 ng/ml, FMT 40 mM, TMZ 900 nM, H2O2 100 mM",up-regulated
